Measurements taken from paper PMC11766267 (International Journal of Molecular Sciences, 2025).
Several values for one entry are separate records, joined by “and”; a condition that tells them apart may be missing. Identical values can stand only once. Like-named read-outs stand apart in the source and are kept apart here.

Tests used:
[1] = biological target: EGFR (Homo sapiens, UniProt P00533); test: In vitro protein kinase inhibition assay (ELISA kit), EGFR
[2] = system: HCT-116, MDA-MB-231, HeLa, and MCF-7; test: MTT cytotoxicity assay, ranges stated over several cell lines; assay type: cell-based; details: Homo sapiens, range over the compounds named
Protocol: Subsequently, 100 µL of dimethyl sulfoxide was introduced to dissolve the insoluble formazan.

[3] = biological target: CDK2 (Homo sapiens, UniProt P24941); test: In vitro protein kinase inhibition assay (ELISA kit), CDK2
[4] = system: MCF-7a; test: In vitro anti-estrogenic activity assay, MCF-7a
[5] = biological target: VEGFR-2 (Homo sapiens, UniProt P35968); test: In vitro protein kinase inhibition assay (ELISA kit), VEGFR-2
Sequence of VEGFR-2 (P35968 20-1356): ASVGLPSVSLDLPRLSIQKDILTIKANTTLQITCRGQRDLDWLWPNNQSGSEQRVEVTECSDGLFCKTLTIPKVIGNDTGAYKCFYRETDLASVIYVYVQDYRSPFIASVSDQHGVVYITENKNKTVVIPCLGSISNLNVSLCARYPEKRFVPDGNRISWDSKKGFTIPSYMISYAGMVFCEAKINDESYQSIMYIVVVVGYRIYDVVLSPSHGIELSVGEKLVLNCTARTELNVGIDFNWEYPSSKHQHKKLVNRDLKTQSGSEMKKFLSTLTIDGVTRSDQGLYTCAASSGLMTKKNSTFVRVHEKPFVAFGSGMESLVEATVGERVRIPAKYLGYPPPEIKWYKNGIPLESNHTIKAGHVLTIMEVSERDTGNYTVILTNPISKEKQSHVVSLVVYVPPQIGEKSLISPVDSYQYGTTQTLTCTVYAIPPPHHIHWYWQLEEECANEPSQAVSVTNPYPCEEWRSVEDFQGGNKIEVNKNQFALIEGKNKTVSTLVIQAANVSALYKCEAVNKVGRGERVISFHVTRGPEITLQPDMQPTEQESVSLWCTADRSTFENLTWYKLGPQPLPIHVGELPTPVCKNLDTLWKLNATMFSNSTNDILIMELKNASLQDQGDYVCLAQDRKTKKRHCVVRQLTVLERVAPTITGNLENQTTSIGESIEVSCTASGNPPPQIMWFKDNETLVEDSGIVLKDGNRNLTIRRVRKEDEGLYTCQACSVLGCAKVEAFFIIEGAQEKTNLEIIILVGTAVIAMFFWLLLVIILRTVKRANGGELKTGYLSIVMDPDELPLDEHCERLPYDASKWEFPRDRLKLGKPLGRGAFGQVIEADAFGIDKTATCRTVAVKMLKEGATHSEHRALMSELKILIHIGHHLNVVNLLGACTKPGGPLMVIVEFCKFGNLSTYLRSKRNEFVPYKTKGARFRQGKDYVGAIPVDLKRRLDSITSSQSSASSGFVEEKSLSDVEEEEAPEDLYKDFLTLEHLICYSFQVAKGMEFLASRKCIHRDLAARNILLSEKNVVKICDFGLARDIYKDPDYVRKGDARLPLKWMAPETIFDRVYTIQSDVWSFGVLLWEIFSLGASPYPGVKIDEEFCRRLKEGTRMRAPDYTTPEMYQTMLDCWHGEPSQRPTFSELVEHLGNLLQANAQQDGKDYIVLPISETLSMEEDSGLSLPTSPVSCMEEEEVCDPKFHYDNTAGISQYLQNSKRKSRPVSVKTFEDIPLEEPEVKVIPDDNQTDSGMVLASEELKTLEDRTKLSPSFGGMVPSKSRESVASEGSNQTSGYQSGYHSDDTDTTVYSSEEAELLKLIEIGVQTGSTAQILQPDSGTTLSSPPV

[6] = system: MCF-7; test: In vitro anti-estrogenic activity assay, MCF-7
[7] = biological target: T1, aromatase (CYP19A, EC 1.14.14.14) (Homo sapiens, UniProt P11511); test: biochemical; details: individual Data 1-3
T1 construct: Microsomal samples were isolated from tissue using the Microsome Isolation Kit; tissue BioVision K983-100; host or cells: microsomes from an unnamed tissue
T1 sequence (P11511 1-503): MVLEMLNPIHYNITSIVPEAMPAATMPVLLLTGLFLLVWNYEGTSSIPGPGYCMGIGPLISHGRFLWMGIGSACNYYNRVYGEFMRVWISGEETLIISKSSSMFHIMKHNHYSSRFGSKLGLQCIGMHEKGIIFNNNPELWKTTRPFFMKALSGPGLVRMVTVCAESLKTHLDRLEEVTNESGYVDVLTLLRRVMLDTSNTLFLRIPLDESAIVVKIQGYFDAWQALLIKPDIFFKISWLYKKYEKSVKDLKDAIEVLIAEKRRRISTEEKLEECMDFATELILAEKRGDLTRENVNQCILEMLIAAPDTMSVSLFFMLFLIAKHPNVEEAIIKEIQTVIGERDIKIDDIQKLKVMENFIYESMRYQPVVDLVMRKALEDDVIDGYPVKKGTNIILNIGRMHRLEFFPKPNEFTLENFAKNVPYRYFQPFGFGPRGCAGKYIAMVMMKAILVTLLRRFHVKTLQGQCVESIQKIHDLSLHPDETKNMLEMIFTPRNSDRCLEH
Protocol: In vitro aromatase assay was performed using the BioVision Aromatase Activity Assay Kit (Catalog # K983-100; BioVision, Milpitas, CA, USA). Microsomal samples were isolated from tissue using the Microsome Isolation Kit (Cat. #K249; BioVision, Milpitas, CA, USA). A standard curve was established by diluting the Fluorescence Standard provided in the kit to create a 0.5 pmole/µL solution, followed by setting up a series of standards in a white 96-well plate, adjusting the total volume to 100 µL with aromatase assay buffer. For each reaction well, a 2X concentrated mix was prepared by adding 2–48 µL of the microsomal sample and 2 µL of the NADPH generating system, bringing the final volume to 50 µL with aromatase assay buffer. Background controls (no enzyme) and positive controls (with recombinant aromatase) were included. […] After a 10 min incubation at 37 °C, 30 µL of the substrate/NADP+ mixture was added to each well, and fluorescence was measured immediately in kinetic mode for 60 min at 37 °C. Finally, the change in fluorescence was calculated to determine the specific activity of aromatase using the formula provided in the kit protocol.

[8] = biological target: HER2 (Homo sapiens, UniProt P04626); test: In vitro protein kinase inhibition assay (ELISA kit), HER2
Sequence of HER2 (P04626 23-1255): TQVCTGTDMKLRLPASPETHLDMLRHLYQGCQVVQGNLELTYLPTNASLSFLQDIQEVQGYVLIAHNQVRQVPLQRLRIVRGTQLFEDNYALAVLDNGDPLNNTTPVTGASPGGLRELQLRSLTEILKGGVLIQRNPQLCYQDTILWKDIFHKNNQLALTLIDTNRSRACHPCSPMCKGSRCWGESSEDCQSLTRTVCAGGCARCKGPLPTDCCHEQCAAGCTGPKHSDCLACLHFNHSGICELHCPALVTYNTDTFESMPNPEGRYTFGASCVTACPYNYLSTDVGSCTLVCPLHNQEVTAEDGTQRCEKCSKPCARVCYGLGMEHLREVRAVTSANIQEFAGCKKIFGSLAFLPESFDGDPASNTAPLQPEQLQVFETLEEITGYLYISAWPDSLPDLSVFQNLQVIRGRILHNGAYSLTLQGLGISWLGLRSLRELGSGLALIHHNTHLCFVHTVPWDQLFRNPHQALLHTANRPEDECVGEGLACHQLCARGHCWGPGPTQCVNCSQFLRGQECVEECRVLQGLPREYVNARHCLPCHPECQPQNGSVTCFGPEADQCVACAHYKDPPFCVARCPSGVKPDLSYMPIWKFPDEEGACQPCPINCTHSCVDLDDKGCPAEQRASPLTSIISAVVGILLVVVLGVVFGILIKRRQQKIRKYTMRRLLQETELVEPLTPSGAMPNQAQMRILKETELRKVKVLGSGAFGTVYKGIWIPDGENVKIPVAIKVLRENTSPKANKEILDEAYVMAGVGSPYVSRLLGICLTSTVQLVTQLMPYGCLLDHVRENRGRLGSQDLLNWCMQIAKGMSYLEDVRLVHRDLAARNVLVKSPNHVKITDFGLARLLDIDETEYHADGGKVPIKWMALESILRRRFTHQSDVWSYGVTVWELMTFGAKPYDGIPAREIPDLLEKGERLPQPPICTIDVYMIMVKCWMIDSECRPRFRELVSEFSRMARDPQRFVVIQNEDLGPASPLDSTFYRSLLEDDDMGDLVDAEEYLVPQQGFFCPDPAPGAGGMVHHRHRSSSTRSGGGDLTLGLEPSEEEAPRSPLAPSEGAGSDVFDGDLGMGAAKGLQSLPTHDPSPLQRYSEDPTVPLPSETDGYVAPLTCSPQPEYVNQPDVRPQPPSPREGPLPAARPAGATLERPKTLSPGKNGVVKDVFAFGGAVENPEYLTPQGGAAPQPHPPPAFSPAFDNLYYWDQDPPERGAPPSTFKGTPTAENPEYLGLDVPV

[9] = cell count relative to the control (17β-E2)

Sequence of EGFR (P00533 25-1210): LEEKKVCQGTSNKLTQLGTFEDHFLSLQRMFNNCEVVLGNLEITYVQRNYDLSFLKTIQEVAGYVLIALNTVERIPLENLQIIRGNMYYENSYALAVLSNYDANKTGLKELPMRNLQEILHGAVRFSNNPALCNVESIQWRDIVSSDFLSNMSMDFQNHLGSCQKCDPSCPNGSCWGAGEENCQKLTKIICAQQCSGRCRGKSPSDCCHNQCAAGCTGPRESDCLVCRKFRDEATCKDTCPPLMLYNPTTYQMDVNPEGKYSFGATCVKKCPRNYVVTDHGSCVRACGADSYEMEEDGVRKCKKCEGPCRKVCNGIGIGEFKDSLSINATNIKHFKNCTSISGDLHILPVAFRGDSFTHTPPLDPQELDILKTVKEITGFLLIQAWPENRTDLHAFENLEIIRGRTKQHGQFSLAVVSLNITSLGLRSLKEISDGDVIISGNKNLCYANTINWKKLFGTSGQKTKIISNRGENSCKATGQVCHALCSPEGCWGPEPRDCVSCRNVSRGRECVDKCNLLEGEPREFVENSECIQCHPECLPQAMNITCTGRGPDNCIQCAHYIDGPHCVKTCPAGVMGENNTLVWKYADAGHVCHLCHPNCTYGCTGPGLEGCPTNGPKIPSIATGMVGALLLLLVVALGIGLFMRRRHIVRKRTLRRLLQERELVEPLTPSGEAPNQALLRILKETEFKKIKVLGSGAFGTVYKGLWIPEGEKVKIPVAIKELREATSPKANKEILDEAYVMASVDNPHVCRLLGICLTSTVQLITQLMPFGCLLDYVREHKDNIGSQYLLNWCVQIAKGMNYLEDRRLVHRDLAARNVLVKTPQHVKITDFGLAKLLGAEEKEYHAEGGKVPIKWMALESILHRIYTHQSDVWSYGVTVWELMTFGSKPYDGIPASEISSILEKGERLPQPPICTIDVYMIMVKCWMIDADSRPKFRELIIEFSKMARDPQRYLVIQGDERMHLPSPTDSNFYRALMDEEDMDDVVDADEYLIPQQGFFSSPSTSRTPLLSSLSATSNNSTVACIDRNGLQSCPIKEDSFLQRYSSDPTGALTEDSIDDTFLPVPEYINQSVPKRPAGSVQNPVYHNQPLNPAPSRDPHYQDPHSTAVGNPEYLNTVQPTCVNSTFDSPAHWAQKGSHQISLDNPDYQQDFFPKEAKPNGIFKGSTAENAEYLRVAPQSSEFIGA

## O=C(/C=C/c1ccccc1)c1ccccc1 [Compound 4a, (E)-Chalcone]
[1]
  IC50: 367 ± 12 nM
[1]; 0.01 µM, individual Data 1-3
  Inhibition (%) EGFR: 10.8% and 13.9%
[1]; 0.1 µM, individual Data 1-3
  Inhibition (%) EGFR: 34.2% and 37.1%
[1]; 1 µM, individual Data 1-3
  Inhibition (%) EGFR: 68.2% and 66.7%
[1]; 10 µM, individual Data 1-3
  Inhibition (%) EGFR: 83.2% and 86.9%
[1]; 100 µM, individual Data 1-3
  Inhibition (%) EGFR: 93.9% and 94.2%
[1]; read-out: Inhibition (%) EGFR, 0.01 µM, individual Data 1-3
  inhibition at 0.01 µM: 12.3%
[1]; read-out: Inhibition (%) EGFR, 0.1 µM, individual Data 1-3
  inhibition at 0.1 µM: 35.8%
[1]; read-out: Inhibition (%) EGFR, 1 µM, individual Data 1-3
  inhibition at 1 µM: 69.9%
[1]; read-out: Inhibition (%) EGFR, 10 µM, individual Data 1-3
  inhibition at 10 µM: 85.6%
[1]; read-out: Inhibition (%) EGFR, 100 µM, individual Data 1-3
  inhibition at 100 µM: 95.1%
[2]; HCT-116 and HeLa, read-out: IC50 values, range against HCT-116 and HeLa
  IC50: 6590 to 22600 nM
[2]; MDA-MB-231 and MCF-7, read-out: IC50 values, range against MDA-MB-231 and MCF-7
  IC50: 2080 to 13600 nM
[3]
  IC50: 840 ± 26 nM
[3]; 0.01 µM, individual Data 1-3
  Inhibition (%) CDK2: 9.7% and 12%
[3]; 0.1 µM, individual Data 1-3
  Inhibition (%) CDK2: 25.6% and 28.78%
[3]; 1 µM, individual Data 1-3
  Inhibition (%) CDK2: 53.8% and 52.78%
[3]; 10 µM, individual Data 1-3
  Inhibition (%) CDK2: 72.98% and 76%
[3]; 100 µM, individual Data 1-3
  Inhibition (%) CDK2: 88.7% and 92.7%
[3]; read-out: Inhibition (%) CDK2, 0.01 µM, individual Data 1-3
  inhibition at 0.01 µM: 11.8%
[3]; read-out: Inhibition (%) CDK2, 0.1 µM, individual Data 1-3
  inhibition at 0.1 µM: 27.7%
[3]; read-out: Inhibition (%) CDK2, 1 µM, individual Data 1-3
  inhibition at 1 µM: 54%
[3]; read-out: Inhibition (%) CDK2, 10 µM, individual Data 1-3
  inhibition at 10 µM: 74.1%
[3]; read-out: Inhibition (%) CDK2, 100 µM, individual Data 1-3
  inhibition at 100 µM: 90.3%
[4]; [9]
  Cell Proliferation MCF-7a %: 102%
[4]; mean ± SD of triplicate
  Cell Proliferation MCF-7a Cell Count: 21,155 ± 611
[4]; relative to control
  Inhibition in MCF-7a: no inhibition
[5]
  IC50: 1550 ± 53 nM
[5]; 0.01 µM, individual Data 1-3
  Inhibition (%) VEGFR2: 4.43% and 2.43% and 5.78%
[5]; 0.1 µM, individual Data 1-3
  Inhibition (%) VEGFR2: 19.78% and 23.4%
[5]; 1 µM, individual Data 1-3
  Inhibition (%) VEGFR2: 40.5% and 38.5%
[5]; 10 µM, individual Data 1-3
  Inhibition (%) VEGFR2: 69% and 76.6%
[5]; 100 µM, individual Data 1-3
  Inhibition (%) VEGFR2: 86.5% and 92.5%
[5]; read-out: Inhibition (%) VEGFR2, 0.1 µM, individual Data 1-3
  inhibition at 0.1 µM: 21.6%
[5]; read-out: Inhibition (%) VEGFR2, 1 µM, individual Data 1-3
  inhibition at 1 µM: 43.5%
[5]; read-out: Inhibition (%) VEGFR2, 10 µM, individual Data 1-3
  inhibition at 10 µM: 73.3%
[5]; read-out: Inhibition (%) VEGFR2, 100 µM, individual Data 1-3
  inhibition at 100 µM: 89.2%
[6]; [9]
  Cell Proliferation MCF-7 %: 79%
[6]; mean ± SD of triplicate
  Cell Proliferation MCF-7 Cell Count: 14,553 ± 518
[6]; relative to control
  Reduction of growth/cell count (inhibition) in MCF-7: 21%
[7]; 0.01 µM
  Inhibition (%) Aromatase: 19.87% and 20.56%
[7]; 0.1 µM
  Inhibition (%) Aromatase: 28.65% and 29.76%
[7]; 1 µM
  Inhibition (%) Aromatase: 63% and 62.76%
[7]; 10 µM
  Inhibition (%) Aromatase: 82.87% and 83.45%
[7]; 100 µM
  Inhibition (%) Aromatase: 92.23% and 94%
[7]; read-out: Inhibition (%) Aromatase, 0.01 µM
  inhibition at 0.01 µM: 20%
[7]; read-out: Inhibition (%) Aromatase, 0.1 µM
  inhibition at 0.1 µM: 29%
[7]; read-out: Inhibition (%) Aromatase, 1 µM
  inhibition at 1 µM: 64%
[7]; read-out: Inhibition (%) Aromatase, 10 µM
  inhibition at 10 µM: 83%
[7]; read-out: Inhibition (%) Aromatase, 100 µM
  inhibition at 100 µM: 93%
[8]
  IC50: 691 ± 27 nM
[8]; 0.01 µM, individual Data 1-3
  Inhibition (%) Her2: 10.6% and 14.2%
[8]; 0.1 µM, individual Data 1-3
  Inhibition (%) Her2: 21.8% and 24.9%
[8]; 1 µM, individual Data 1-3
  Inhibition (%) Her2: 60.9% and 59.5%
[8]; 10 µM, individual Data 1-3
  Inhibition (%) Her2: 78% and 81.2%
[8]; 100 µM, individual Data 1-3
  Inhibition (%) Her2: 89.9% and 93.1%
[8]; read-out: Inhibition (%) Her2, 0.01 µM, individual Data 1-3
  inhibition at 0.01 µM: 12.3%
[8]; read-out: Inhibition (%) Her2, 0.1 µM, individual Data 1-3
  inhibition at 0.1 µM: 23.8%
[8]; read-out: Inhibition (%) Her2, 1 µM, individual Data 1-3
  inhibition at 1 µM: 62.2%
[8]; read-out: Inhibition (%) Her2, 10 µM, individual Data 1-3
  inhibition at 10 µM: 79.1%
[8]; read-out: Inhibition (%) Her2, 100 µM, individual Data 1-3
  inhibition at 100 µM: 91%
